Source: PubChem BioAssay AID1918954 (Molecular Pharmacology Branch, DTP, NCI, 2023)

Tested on: MDA-MB-468 complex spheroids with HUVEC/MSC, viability
Assay: Anticancer human tumor MDA-MB-468 cell line growth inhibition;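 further: spheroids exposed to agents for seven days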;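 on viability, T/C: 100% = DMSO vehicle control viability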
Details: for IC50: curve of first compound; for viability, T/C: stronger effect = lower value
In short: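 Multicellular complex spheroids of tumor cells with human endothelial cells (HUVEC) and mesenchymal stem cells; the LSD1 inhibitor iadademstat was combined with standard-of-care or investigational agents. Top concentration at or near clinical Cmax, half-log dilutions; final DMSO ≤0.25%.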

[1] = second compound 0.1 µM, first compound 0.0316 µM
[2] = second compound 0.1 µM, first compound 0.1 µM
[3] = second compound 0.1 µM, first compound 0.316 µM
[4] = second compound 0.1 µM, first compound 1 µM
[5] = second compound 0.1 µM, first compound 3.16 µM
[6] = second compound 0.1 µM, first compound 10 µM
[7] = second compound 0.316 µM, first compound 0.0316 µM
[8] = second compound 0.316 µM, first compound 0.1 µM
[9] = second compound 0.316 µM, first compound 0.316 µM
[10] = second compound 0.316 µM, first compound 1 µM
[11] = second compound 0.316 µM, first compound 3.16 µM
[12] = second compound 0.316 µM, first compound 10 µM
[13] = second compound 1 µM, first compound 0.0316 µM
[14] = second compound 1 µM, first compound 0.1 µM
[15] = second compound 1 µM, first compound 0.316 µM
[16] = second compound 1 µM, first compound 1 µM
[17] = second compound 1 µM, first compound 3.16 µM
[18] = second compound 1 µM, first compound 10 µM
[19] = second compound 3.16 µM, first compound 0.0316 µM
[20] = second compound 3.16 µM, first compound 0.1 µM
[21] = second compound 3.16 µM, first compound 0.316 µM
[22] = second compound 3.16 µM, first compound 1 µM
[23] = second compound 3.16 µM, first compound 3.16 µM
[24] = second compound 3.16 µM, first compound 10 µM
[25] = second compound 10 µM, first compound 0.0316 µM
[26] = second compound 10 µM, first compound 0.1 µM
[27] = second compound 10 µM, first compound 0.316 µM
[28] = second compound 10 µM, first compound 1 µM
[29] = second compound 10 µM, first compound 3.16 µM
[30] = second compound 10 µM, first compound 10 µM

Compound	IC50 (second compound 0.1 µM) [nM]	IC50 (second compound 0.316 µM) [nM]	IC50 (second compound 1 µM) [nM]	IC50 (second compound 3.16 µM) [nM]	IC50 (second compound 10 µM) [nM]	viability, T/C [1] [%]	viability, T/C [2] [%]	viability, T/C [3] [%]	viability, T/C [4] [%]	viability, T/C [7] [%]	viability, T/C [8] [%]	viability, T/C [9] [%]	viability, T/C [10] [%]	viability, T/C [13] [%]	viability, T/C [14] [%]	viability, T/C [15] [%]	viability, T/C [16] [%]	viability, T/C [19] [%]	viability, T/C [20] [%]	viability, T/C [21] [%]	other results
CC(C)c1c(-c2ccccc2)nc2c(C#N)c[nH]n2c1=O + NC1CC1c1ccc(-c2cccc(O)c2)cc1	> 10000	> 10000	> 10000	> 10000	> 10000	91.7	89.1	94.4	96	89.2	82.6	92.5	91.4	89.1	88	86.7	102	102	83.5	87.6	viability, T/C [5]: 96.7%; viability, T/C [6]: 84.1%; viability, T/C [11]: 89.4%; viability, T/C [12]: 87.9%; viability, T/C [17]: 89.7%; viability, T/C [18]: 79.5%; viability, T/C [22]: 88.2%; viability, T/C [23]: 81.3%; viability, T/C [24]: 74.7%; viability, T/C [25]: 66.7%; viability, T/C [26]: 67%; viability, T/C [27]: 59.3%; viability, T/C [28]: 57.2%; viability, T/C [29]: 67.1%; viability, T/C [30]: 49.4%
CC1COCCN1c1cc(-c2ccnn2C)c2ccnc(-c3ccn[nH]3)c2n1 (stereo not given) + NC1CC1c1ccc(-c2cccc(O)c2)cc1	< 3.16	< 3.16	< 3.16	< 3.16	< 3.16	16.7	7.91	5.23	2.24	17	7.28	4.97	2.27	15.5	7.91	5.09	2.01	12.3	7.5	5.19	viability, T/C (second compound 0.1 µM, first compound 0.00316 µM): 40%; viability, T/C (second compound 0.1 µM, first compound 0.01 µM): 30.1%; viability, T/C (second compound 0.316 µM, first compound 0.00316 µM): 37.9%; viability, T/C (second compound 0.316 µM, first compound 0.01 µM): 27.4%; viability, T/C (second compound 1 µM, first compound 0.00316 µM): 29.2%; viability, T/C (second compound 1 µM, first compound 0.01 µM): 28%; viability, T/C (second compound 3.16 µM, first compound 0.00316 µM): 27.4%; viability, T/C (second compound 3.16 µM, first compound 0.01 µM): 22.4%; viability, T/C [22]: 2.2%; viability, T/C (second compound 10 µM, first compound 0.00316 µM): 20.3%; viability, T/C (second compound 10 µM, first compound 0.01 µM): 17.1%; viability, T/C [25]: 10.4%; viability, T/C [26]: 6.9%; viability, T/C [27]: 5.95%; viability, T/C [28]: 2.01%
COc1ccc([C@@H](O)c2cc(-c3ncnc4cc(N5CCOCC5)ccc34)c(F)cc2Cl)nn1 + NC1CC1c1ccc(-c2cccc(O)c2)cc1	878	876	720	701	228	113	103	69.1	47.4	107	82.3	69.8	52.8	109	109	71.9	39.6	102	87.8	73.4	viability, T/C [5]: 26.1%; viability, T/C [6]: 6.17%; viability, T/C [11]: 25.9%; viability, T/C [12]: 5.99%; viability, T/C [17]: 21%; viability, T/C [18]: 5.38%; viability, T/C [22]: 37.2%; viability, T/C [23]: 21.5%; viability, T/C [24]: 4.59%; viability, T/C [25]: 69.2%; viability, T/C [26]: 59.8%; viability, T/C [27]: 45.1%; viability, T/C [28]: 33.2%; viability, T/C [29]: 20.1%; viability, T/C [30]: 2.86%
